Values quoted from earlier work in paper PMC8089043 (Journal of controlled release : official journal of the …, 2021).

Tests used:
[1] = in vivo
[2] = rats, high doses

Row | SMILES | safety of diets containing gram quantities [1] | dose exhibiting hepatic and renal toxicities [2]
1 | O=c1oc2cc(O)ccc2c2ccc(O)cc12 [UA, urolithin A] | safe | –
2 | CC(C)=CCC[C@]1(C)C=Cc2c(O)c3c(c(CC=C(C)C)c2O1)O[C@]12C(=C[C@@H]4C[C@H]1C(C)(C)O[C@@]2(C/C=C(/C)C(=O)O)C4=O)C3=O [GA, gambogic acid] | – | > 120 mg/kg
